Test results from PubChem BioAssay (NCI).
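All cell lines were grown in 96-well plates and treated with compound for 48 hours. GI50 is the concentration that inhibits growth by half. TGI marks complete inhibition of growth.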

Experiments:
Assay in all cases: NCI anticancer screen, dose series, 48 h
OVCAR-8 ovarian = test system: OVCAR-8 ovarian
RPMI-8226 leukemia = test system: RPMI-8226 leukemia
T-47D breast = test system: T-47D breast
MOLT-4 leukemia = test system: MOLT-4 leukemia
UACC-257 melanoma = test system: UACC-257 melanoma
HOP-62 NSCLC = test system: HOP-62 NSCLC
SK-MEL-2 melanoma = test system: SK-MEL-2 melanoma
TK-10 renal = test system: TK-10 renal
A498 renal = test system: A498 renal
EKVX NSCLC = test system: EKVX NSCLC
SK-OV-3 ovarian = test system: SK-OV-3 ovarian
SK-MEL-28 melanoma = test system: SK-MEL-28 melanoma
MDA-MB-231 breast = test system: MDA-MB-231 breast
OVCAR-4 ovarian = test system: OVCAR-4 ovarian
IGROV1 ovarian = test system: IGROV1 ovarian
SR leukemia = test system: SR leukemia
COLO 205 colon = test system: COLO 205 colon
HCT-116 colon = test system: HCT-116 colon
SF-268 CNS = test system: SF-268 CNS
UACC-62 melanoma = test system: UACC-62 melanoma
NCI-H23 lung = test system: NCI-H23 lung
SNB-75 CNS = test system: SNB-75 CNS
NCI-H460 lung = test system: NCI-H460 lung
SNB-19 CNS = test system: SNB-19 CNS
SW-620 colon = test system: SW-620 colon
SF-539 CNS = test system: SF-539 CNS
K-562 leukemia = test system: K-562 leukemia
U251 CNS = test system: U251 CNS
A549 NSCLC = test system: A549 NSCLC
LOX IMVI melanoma = test system: LOX IMVI melanoma
MCF7 breast = test system: MCF7 breast
MDA-MB-435 = test system: MDA-MB-435
786-0 renal = test system: 786-0 renal
NCI-H226 lung = test system: NCI-H226 lung
HL-60(TB) leukemia = test system: HL-60(TB) leukemia
HT29 colon = test system: HT29 colon
CAKI-1 renal = test system: CAKI-1 renal
NCI-H522 lung = test system: NCI-H522 lung
SF-295 CNS = test system: SF-295 CNS
SN12C renal = test system: SN12C renal
DU-145 prostate = test system: DU-145 prostate
HCC-2998 colon = test system: HCC-2998 colon
HS 578T breast = test system: HS 578T breast
ACHN renal = test system: ACHN renal
RXF 393 renal = test system: RXF 393 renal
PC-3 prostate = test system: PC-3 prostate
M14 melanoma = test system: M14 melanoma
NCI/ADR-RES ovarian = test system: NCI/ADR-RES ovarian
CCRF-CEM leukemia = test system: CCRF-CEM leukemia
OVCAR-5 ovarian = test system: OVCAR-5 ovarian
BT-549 breast = test system: BT-549 breast
HCT-15 colon = test system: HCT-15 colon
MALME-3M melanoma = test system: MALME-3M melanoma
HOP-92 NSCLC = test system: HOP-92 NSCLC
SK-MEL-5 melanoma = test system: SK-MEL-5 melanoma
KM12 colon = test system: KM12 colon
UO-31 renal = test system: UO-31 renal

O=C(CCCCCCN1CC(=O)N2[C@@H](c3cccc(Br)c3)c3[nH]c4ccccc4c3C[C@H]2C1=O)NO
GI50 (OVCAR-8 ovarian): 2.32 µM | TGI (OVCAR-8 ovarian): > 16.7 µM | GI50 (RPMI-8226 leukemia): 0.982 µM | TGI (RPMI-8226 leukemia): 11.6 µM | GI50 (T-47D breast): 1.65 µM | TGI (T-47D breast): 12.8 µM | GI50 (MOLT-4 leukemia): 0.933 µM | TGI (MOLT-4 leukemia): 10.4 µM | GI50 (UACC-257 melanoma): 2.37 µM | TGI (UACC-257 melanoma): > 16.7 µM | GI50 (HOP-62 NSCLC): 2.51 µM | TGI (HOP-62 NSCLC): 7.59 µM | GI50 (SK-MEL-2 melanoma): 2.77 µM | TGI (SK-MEL-2 melanoma): 12.7 µM | GI50 (TK-10 renal): 2.98 µM | TGI (TK-10 renal): 15.1 µM | GI50 (A498 renal): 2.75 µM | TGI (A498 renal): 6.31 µM | GI50 (EKVX NSCLC): 4.33 µM | TGI (EKVX NSCLC): > 16.7 µM | GI50 (SK-OV-3 ovarian): 3.23 µM | TGI (SK-OV-3 ovarian): 9.27 µM | GI50 (SK-MEL-28 melanoma): 2.51 µM | TGI (SK-MEL-28 melanoma): 10.5 µM | GI50 (MDA-MB-231 breast): 3.25 µM | TGI (MDA-MB-231 breast): 11.5 µM | GI50 (OVCAR-4 ovarian): 3.17 µM | TGI (OVCAR-4 ovarian): > 16.7 µM | GI50 (IGROV1 ovarian): 0.403 µM | TGI (IGROV1 ovarian): 1.11 µM | GI50 (SR leukemia): 0.554 µM | TGI (SR leukemia): 8.71 µM | GI50 (COLO 205 colon): 2.28 µM | TGI (COLO 205 colon): 8.36 µM | GI50 (HCT-116 colon): 1.05 µM | TGI (HCT-116 colon): 6.46 µM | GI50 (SF-268 CNS): 3.44 µM | TGI (SF-268 CNS): 9.8 µM | GI50 (UACC-62 melanoma): 1.78 µM | TGI (UACC-62 melanoma): 5.38 µM | GI50 (NCI-H23 lung): 3.08 µM | TGI (NCI-H23 lung): 9.78 µM | GI50 (SNB-75 CNS): 0.707 µM | TGI (SNB-75 CNS): 9.15 µM | GI50 (NCI-H460 lung): 2.43 µM | TGI (NCI-H460 lung): 11.5 µM | GI50 (SNB-19 CNS): 3.79 µM | TGI (SNB-19 CNS): > 16.7 µM | GI50 (SW-620 colon): 2.24 µM | TGI (SW-620 colon): 14.7 µM | GI50 (SF-539 CNS): 2.89 µM | TGI (SF-539 CNS): 10.5 µM | GI50 (K-562 leukemia): 1.37 µM | TGI (K-562 leukemia): > 16.7 µM | GI50 (U251 CNS): 2.78 µM | TGI (U251 CNS): 10.7 µM | GI50 (A549 NSCLC): 4.83 µM | TGI (A549 NSCLC): > 16.7 µM | GI50 (LOX IMVI melanoma): 0.203 µM | TGI (LOX IMVI melanoma): 0.431 µM | GI50 (MCF7 breast): 1.88 µM | TGI (MCF7 breast): 7.19 µM | GI50 (MDA-MB-435): 2.27 µM | TGI (MDA-MB-435): 7.29 µM | GI50 (786-0 renal): 3.86 µM | TGI (786-0 renal): 11.1 µM | GI50 (NCI-H226 lung): 5.01 µM | TGI (NCI-H226 lung): > 16.7 µM | GI50 (HL-60(TB) leukemia): 1.2 µM | TGI (HL-60(TB) leukemia): 6.29 µM | GI50 (HT29 colon): 2.23 µM | TGI (HT29 colon): > 16.7 µM | GI50 (CAKI-1 renal): 2.6 µM | TGI (CAKI-1 renal): 15 µM | GI50 (NCI-H522 lung): 0.8 µM | TGI (NCI-H522 lung): 5.77 µM | GI50 (SF-295 CNS): 2.57 µM | TGI (SF-295 CNS): 6.58 µM | GI50 (SN12C renal): 3.9 µM | TGI (SN12C renal): > 16.7 µM | GI50 (DU-145 prostate): 3.13 µM | TGI (DU-145 prostate): 12.3 µM | GI50 (HCC-2998 colon): 2.66 µM | TGI (HCC-2998 colon): 5.81 µM | GI50 (HS 578T breast): 2.25 µM | TGI (HS 578T breast): 12.1 µM | GI50 (ACHN renal): 3.85 µM | TGI (ACHN renal): 14.9 µM | GI50 (RXF 393 renal): 1.51 µM | TGI (RXF 393 renal): 5.21 µM | GI50 (PC-3 prostate): 2.23 µM | TGI (PC-3 prostate): > 16.7 µM | GI50 (M14 melanoma): 2.81 µM | TGI (M14 melanoma): 14.3 µM | GI50 (NCI/ADR-RES ovarian): > 16.7 µM | TGI (NCI/ADR-RES ovarian): > 16.7 µM | GI50 (CCRF-CEM leukemia): 0.709 µM | TGI (CCRF-CEM leukemia): > 16.7 µM | GI50 (OVCAR-5 ovarian): 3.37 µM | TGI (OVCAR-5 ovarian): > 16.7 µM | GI50 (BT-549 breast): 3.81 µM | TGI (BT-549 breast): 16.1 µM | GI50 (HCT-15 colon): 13 µM | TGI (HCT-15 colon): > 16.7 µM | GI50 (MALME-3M melanoma): 0.922 µM | TGI (MALME-3M melanoma): 7.45 µM | GI50 (HOP-92 NSCLC): 1.84 µM | TGI (HOP-92 NSCLC): 5.78 µM | GI50 (SK-MEL-5 melanoma): 2.6 µM | TGI (SK-MEL-5 melanoma): 9.06 µM | GI50 (KM12 colon): 2.95 µM | TGI (KM12 colon): 6.65 µM | GI50 (UO-31 renal): 3.3 µM | TGI (UO-31 renal): > 16.7 µM
